In the series the test system is continuously hydrated rats. The series can be described thus: Antidiuresis test in continuously hydrated rats with additional water loading (oral administration). Type of series: in vivo, rat. To be noted: for urine production after additional water loads: groups with additional water loads (15 mL/kg at two and three hours after administration); for urine production after additional water loads / urine production: FIG. 1; for urine production: groups without additional water loads, two hours after administration, maintained until four hours; for change in plasma sodium level (in words): three hours and four hours after administration, additional water loads. On the procedure: Male Wistar rats were used in the test. Initially, water load with 15 mL/kg of distilled water was forcedly administered to the rats. Every 30 minutes after loading water, urine volume collected during 30 minutes was measured and distilled water was forcedly administered to the rats in an amount equal to the urine volume excreted during the last 30 minutes. This water load procedure was repeated to the termination of the test to maintain the diuretic state. […] The individual groups were further divided into two subgroups, and additional distilled water of 15 mL/kg load was forcedly administered to one of the subgroups two times, i.e. at two hours and three hours after the administration. For comparison, the Vehicle group administered only with the vehicle was also subjected to the additional administrations of water load. Blood was collected from a half of the rats in each group subjected to additional administrations of water load, at three hours after the administration (immediately before the second additional water load) and from the other half at four hours after the administration, and plasma sodium levels were measured with an automatic electrolyte analyzer to determine the plasma sodium levels at three hours and four hours after the administration, respectively (each group consisted of seven to eight rats). Changes in the urine volume in individual groups are shown in FIG. 1, and the plasma sodium levels of the group administered with additional water loads are shown in Table 4.

The values that follow come from patent publication US10975091B2, “Pyridine derivative” (Astellas Pharma Inc., priority 2014, dated 2021).

Molecules are shown by their SMILES.

Regarding `CC(C)C[C@H](N)[C@](O)(Cc1cc(O[C@H]2CC[C@H](C)CC2)ccn1)C(=O)O` (relative stereo) [EX-a], the “urine production after additional water loads” value is “resumed after administration of the additional water loads”, the urine production result is given as “almost stopped” and the “change in plasma sodium level (in words)” value is recorded as “slightly decreased”.
On to `CCSC[C@H](N)[C@](O)(Cc1cc(O[C@H]2CC[C@H](C)CC2)ccn1)C(=O)O` [EX-b, (2R,3R)-3-amino-4-(ethylsulfanyl)-2-hydroxy-2-({4-[(trans-4-methylcyclohexyl)oxy]pyridin-2-yl}methyl)butanoic acid], for which the “urine production after additional water loads” value is on record as “resumed after administration of the additional water loads”, the urine production entry is on record as “almost stopped” and the “change in plasma sodium level (in words)” value is given as “slightly decreased”.
In the same order, the values of `NC(=O)CC[C@@H]1NC(=O)[C@H](Cc2ccccc2)NC(=O)[C@H](Cc2ccc(O)cc2)NC(=O)CCSSC[C@@H](C(=O)N2CCC[C@H]2C(=O)N[C@H](CCCN=C(N)N)C(=O)NCC(N)=O)NC(=O)[C@H](CC(N)=O)NC1=O` [dDAVP, Desmopressin, reference compound] are “urine production was not resumed”, “almost stopped” and “more significant decreases”.
